For one assay, the system named is apyrase. The assay can be described thus: Apyrase inhibition assay (screen for apyrase inhibitors, phosphate release read at 630 nm). Format: biochemical. To be noted: inhibitor conc at 1 mM (10 μl added), 3 mM ATP, pH 6.5, room temperature 1 hr. The procedure: Apyrase inhibitors useful as enhancers of pesticidal activity are assessed using an in vitro assay. The method of Windsor, Bio Techniques 33:1024-1030 (November 2002) was used as follows
• 96 well plates were used for the assay: (Greiner bio-one: REF-655901-96 well, PS, F-bottom, Clear, Non-binding)
• Reaction Buffer: 60 mM Hepes; 3 mM MgCl2, 3 mM CaCl2) and 3 mM ATP (pH 6.5) • Development Buffer A: 2% aqueous ammonium molybdate • Development Buffer B: 11% ascorbic acid in 37.5% TCA in water • Stop buffer C: 2% trisodium citrate in 2% acetic acid solution in water
• Add 100 μl of reaction buffer to each well. • Add 10 μl of DMSO (control) or inhibitor/compound or compounds such as N1915 or orthovanadate to each well. (use inhibitor conc at 1 mM; orthovanadate at 2 mM and N1915 at 1 mM) • Add 10 μl of apyrase (concentration based on optimization—Dilute 1 U/μl enzyme to different concentrations such as 0.1 U, 0.05 U, 0.0025, 0.001 U, 0.0005 U—to find a good range) • Incubate plate at room temperature for 1 hr • Mix development buffer A and B in the ratio of 1:1.5 (just before use). • Add 50 μl of A: B mix in each well (incubate for 2 mins) • Add 50 μl of C in each well • Measure/Read Absorbance of plate @630 nm
Inhibitory data for the apyrase assay described above are provided for selected compounds in Table 3. D is inhibition of 0% to 10%, C is inhibition from 10% to 20%, B is inhibition from 20% to 30%, and A is inhibition above 30%. Blank entries signify compounds that were not tested.
As for `CCCc1ccc(S(=O)(=O)Nc2ccc(S(C)(=O)=O)cc2)cc1` [Compound A-50, N-(4-(methylsulfonyl)phenyl)-4-propylbenzenesulfonamide], the Inhibition result is “C (C is inhibition from 10% to 20%)”.
On the same count and under the same terms, the entry for `CCCc1ccc(S(=O)(=O)Nc2ccc(C(N)=O)cc2)cc1` [Compound A-81, 4-((4-propylphenyl)sulfonamido) benzamide] is “D (D is inhibition of 0% to 10%)”; for `COc1ccccc1Oc1ccc(S(=O)(=O)Nc2cccc(C)c2)cc1` [Compound A-100, 4-(2-methoxyphenoxy)-N-(m-tolyl)benzenesulfonamide] it is “D (D is inhibition of 0% to 10%)”.
For the compound `Cc1cccc(NS(=O)(=O)c2ccc(C(=O)NCC(F)(F)F)cc2)c1` [Compound A-66, 4-(N-(m-tolyl)sulfamoyl)-N-(2,2,2-trifluoroethyl)benzamide], the Inhibition entry is on record as “C (C is inhibition from 10% to 20%)”.
Consider `O=S(=O)(c1ccc(-c2ccccc2)cc1)N1CCCSCC1` [Compound A-106, 4-([1,1′-biphenyl]-4-ylsulfonyl)-1,4-thiazepane], for which the Inhibition result was “D (D is inhibition of 0% to 10%)”.
For `CCCc1ccc(S(=O)(=O)Nc2cccc([N+](=O)[O-])c2)cc1` [Compound A-70, N-(3-nitrophenyl)-4-propylbenzenesulfonamide], the Inhibition result is reported as “C (C is inhibition from 10% to 20%)”.
Regarding `CCCc1ccc(S(=O)(=O)Nc2ccc(S(=O)(=O)NC)cc2)cc1` [Compound A-80, N-methyl-4-((4-propylphenyl)sulfonamido) benzenesulfonamide], the Inhibition result is “D (D is inhibition of 0% to 10%)”.
The same measure, in the same setting: the entry for `Cc1cccc(NS(=O)(=O)c2ccc(S(=O)(=O)N3CCCC3)cc2)c1` [Compound A-60, 4-(pyrrolidin-1-ylsulfonyl)-N-(m-tolyl)benzenesulfonamide] is “D (D is inhibition of 0% to 10%)”.
On to `CCCc1ccc(S(=O)(=O)Nc2ccc(S(=O)(=O)Nc3nccs3)cc2)cc1` [Compound A-85, 4-propyl-N-(4-(N-(thiazol-2-yl)sulfamoyl)phenyl)benzene-sulfonamide], for which the Inhibition result is reported as “D (D is inhibition of 0% to 10%)”.
Still for that read-out and setting: the result for `CCCc1ccc(S(=O)(=O)Nc2ccc(Cl)c(NC(C)=O)c2)cc1` [Compound A-119, N-(2-chloro-5-((4-propylphenyl)sulfonamido)phenyl)acetamide] reads “D (D is inhibition of 0% to 10%)”; that for `CCCc1ccc(S(=O)(=O)Nc2ccc(S(=O)(=O)N(C)C3CCCCC3)cc2)cc1` [Compound A-79, N-cyclohexyl-N-methyl-4-((4-propylphenyl)sulfonamido) benzenesulfonamide], “A (A is inhibition above 30%)”; that for `CCCc1ccc(S(=O)(=O)Nc2ccccc2C(N)=O)cc1` [Compound A-86, 2-((4-propylphenyl)sulfonamido) benzamide], “D (D is inhibition of 0% to 10%)”.
As to `CCCc1ccc(S(=O)(=O)Nc2ccccc2Br)cc1` [Compound A-55, N-(2-bromophenyl)-4-propylbenzenesulfonamide], the Inhibition result is “D (D is inhibition of 0% to 10%)”.
On to `O=S(=O)(c1ccc(-c2ccccc2)cc1)N1CCN(C2CCOCC2)CC1` [Compound A-11, 1-([1,1′-biphenyl]-4-ylsulfonyl)-4-(tetrahydro-2H-pyran-4-yl)piperazine], for which the Inhibition result is reported as “D (D is inhibition of 0% to 10%)”.
Turning to `CCCc1ccc(S(=O)(=O)Nc2c(C(C)C)cccc2C(C)C)cc1` [Compound A-76, N-(2,6-diisopropylphenyl)-4-propylbenzenesulfonamide], the Inhibition result is reported as “C (C is inhibition from 10% to 20%)”.
Regarding `CCCc1ccc(S(=O)(=O)Nc2ccc(O)c(C(=O)O)c2)cc1` [Compound A-26, 2-hydroxy-5-((4-propylphenyl)sulfonamido) benzoic acid], the Inhibition entry is listed as “B (B is inhibition from 20% to 30%)”.
With `CCCc1ccc(S(=O)(=O)Nc2ccccc2Sc2nncn2C)cc1` [Compound A-27, N-(2-((4-methyl-4H-1,2,4-triazol-3-yl)thio)phenyl)-4-propylbenzenesulfonamide], the Inhibition result is “D (D is inhibition of 0% to 10%)”.
Turning to `NC1CCN(S(=O)(=O)c2ccc(-c3ccccc3)cc2)CC1` [Compound A-33, 1-([1,1′-biphenyl]-4-ylsulfonyl)piperidin-4-amine], the Inhibition result is given as “B (B is inhibition from 20% to 30%)”.
Turning to `CCCc1ccc(S(=O)(=O)Nc2cc(Cl)ccc2OC)cc1` [Compound A-74, N-(5-chloro-2-methoxyphenyl)-4-propylbenzenesulfonamide], the Inhibition entry is recorded as “C (C is inhibition from 10% to 20%)”.
`CCCc1ccc(S(=O)(=O)Nc2cc(Cl)ccc2Sc2nncn2C)cc1` [Compound A-67, N-(5-chloro-2-((4-methyl-4H-1,2,4-triazol-3-yl)thio)phenyl)-4-propylbenzenesulfonamide]: the Inhibition entry is “C (C is inhibition from 10% to 20%)”.
In the case of `CCCc1ccc(S(=O)(=O)Nc2ccccc2C(=O)OC)cc1` [Compound A-53, methyl 2-((4-propylphenyl)sulfonamido) benzoate], the Inhibition entry is listed as “C (C is inhibition from 10% to 20%)”.
On the same count and under the same terms, the result for `Cc1cccc(NS(=O)(=O)c2ccc(C(=O)O)cc2)c1` [Compound A-65, 4-(N-(m-tolyl)sulfamoyl)benzoic acid] reads “B (B is inhibition from 20% to 30%)”.
In the case of `CCCc1ccc(S(=O)(=O)Nc2ccc(S(=O)(=O)CC)cc2)cc1` [Compound A-32, N-(4-(ethylsulfonyl)phenyl)-4-propylbenzenesulfonamide], the Inhibition entry is listed as “C (C is inhibition from 10% to 20%)”.
On to `CCCc1ccc(S(=O)(=O)Nc2ccc(CC(C)C(=O)O)cc2)cc1` (stereo not shown) [Compound A-19, 2-methyl-3-(4-((4-propylphenyl)sulfonamido)phenyl)propanoic acid], for which the Inhibition result is “B (B is inhibition from 20% to 30%)”.
In the case of `CCCc1ccc(S(=O)(=O)Nc2ccc(C)cc2Cl)cc1` [Compound A-82, N-(2-chloro-4-methylphenyl)-4-propylbenzenesulfonamide], the Inhibition result is “C (C is inhibition from 10% to 20%)”.

A further assay deals with Amaranthus retroflexus (pigweed). Nature of the assay: Enhancement of herbicide activity: pre-emergence Amaranthus kill with metribuzin. To be noted: Amaranthus retroflexus, 168 h, read-out: Pre-Emergence Amaranthus Kill Percentage, Assessed 7 DAT, Metribuzin rate 50 g/ha. Type of assay: in vivo. The method, then:
Specifically, Amaranthus retroflexus (pigweed) was treated pre-emergence with metribuzin alone or in combination with an enhancer compound disclosed herein. Fifteen seeds of Amaranthus retroflexus were sown in soil in each pot and then sprayed with a mixture of metribuzin at the appropriate rate shown in Table 5 and the compound of this invention at 100 g/ha using a track sprayer at a water volume of 200 L/hectare. Small amounts of acetone were used to aid solubility. The pots were watered immediately after sowing and treatment and then allowed to stand in a glasshouse. Assessment of kill was made seven and fourteen days after treatment. The test included four replicates for each treatment and the control.
Take `CSc1nnc(C(C)(C)C)c(=O)n1N` [None (metribuzin only), metribuzin, reference compound]: the pest or weed control at 100 g/ha was determined as 0%.

Staying with this assay, now noted: Amaranthus retroflexus, 168 h, read-out: Pre-Emergence Amaranthus Kill Percentage, Assessed 7 DAT, Metribuzin rate 100 g/ha.
Regarding `CSc1nnc(C(C)(C)C)c(=O)n1N` [None (metribuzin only), metribuzin, reference compound], the pest or weed control at 100 g/ha worked out at 15.2%.

Still in this assay, the particulars now being: Amaranthus retroflexus, 168 h, read-out: Pre-Emergence Amaranthus Kill Percentage, Assessed 7 DAT, Metribuzin rate 200 g/ha.
Turning to `CSc1nnc(C(C)(C)C)c(=O)n1N` [None (metribuzin only), metribuzin, reference compound], the pest or weed control at 100 g/ha came to 60.9%.

The assay is the same for the next values; noted with them: Amaranthus retroflexus, 336 h, read-out: Pre-Emergence Amaranthus Kill Percentage, Assessed 14 DAT, Metribuzin rate 50 g/ha.
`CSc1nnc(C(C)(C)C)c(=O)n1N` [None (metribuzin only), metribuzin, reference compound]: the pest or weed control at 100 g/ha stood at 7.7%.

Staying with this assay, now noted: Amaranthus retroflexus, 336 h, read-out: Pre-Emergence Amaranthus Kill Percentage, Assessed 14 DAT, Metribuzin rate 100 g/ha.
Regarding `CSc1nnc(C(C)(C)C)c(=O)n1N` [None (metribuzin only), metribuzin, reference compound], the pest or weed control at 100 g/ha was determined as 38.3%.

Staying with this assay, now noted: Amaranthus retroflexus, 336 h, read-out: Pre-Emergence Amaranthus Kill Percentage, Assessed 14 DAT, Metribuzin rate 200 g/ha.
With `CSc1nnc(C(C)(C)C)c(=O)n1N` [None (metribuzin only), metribuzin, reference compound], the pest or weed control at 100 g/ha turned out to be 74%.

(Values after patent publication US20250275539A1, “APYRASE INHIBITORS” (Texas Crop Science, Inc., priority 2024, published 2025).)
